{"source": "paper PMC12524297", "about": "(International Journal of Molecular Sciences, 2025)", "key": {"[1]": {"assay": "In vitro assays confirming flagged compound (no details given)", "from_the_text": "5.Implementation and Reproducibility\n5.1 Real-World Deployment in Chemical Safety Assessment\nHazChemNet has been integrated into a cloud-based decision support system for chemical safety evaluation, enabling real-time toxicity prediction for industrial and regulatory use. Key applications include:\nIndustrial Chemical Screening:\nA pharmaceutical company utilized HazChemNet to prioritize 1,200 candidate compounds for drug development. The model identified 18% as high-risk (toxic), reducing experimental testing costs by 35%.\nEnvironmental Regulation Compliance:\nA regulatory agency deployed the model to screen 5,000 industrial chemicals under the EU REACH framework.\nHazChemNet achieved 89% concordance with expert evaluations, accelerating risk assessment workflows.\n5.2 Case Study: Identification of Emerging Contaminants\nWe applied HazChemNet to predict the toxicity of per- and polyfluoroalkyl substances (PFAS), a class of persistent environmental pollutants. The model identified 22 out of 30 PFAS compounds as hazardous, including:\nPFOS (Perfluorooctanesulfonic acid): Predicted probability = 0.93 (high risk).\nGenX (Hexafluoropropylene oxide dimer acid): Predicted probability = 0.87 (moderate risk).\nValidation: Experimental LC50 data from zebrafish assays confirmed the predictions with a Spearman correlation of ρ […]\n5.3 Integration with Laboratory Information Systems […]"}, "[2]": {"tested_on": "Caenorhabditis elegans (C. elegans, N2 strain)"}}, "note": "Read-outs that look alike come from different tables or passages of the source."}
{"compound": "O=C1C=CC(=O)C(Cl)=C1", "note": "[CID_123456]", "values": [{"measurement": "confirmation of hazard flag by in vitro assays", "setting": "[1]", "result": "confirmed by in vitro assays"}]}
{"compound": "O=C(O)CC(O)(CC(=O)O)C(=O)O", "note": "[Citric Acid]", "values": [{"measurement": "mortality", "setting": "[2]; in vivo", "result": "no significant mortality"}]}
{"compound": "OCC(O)CO", "note": "[Glycerol]", "values": [{"measurement": "mortality", "setting": "[2]; in vivo", "result": "no significant mortality"}]}
{"compound": "CC(=O)[O-].CC(=O)[O-].[Pb+2]", "note": "[Lead Acetate]", "values": [{"measurement": "LD50", "setting": "[2]; L4-stage worms, 24 h at 20 °C, K-M buffer, Probit analysis", "result": "0.464 to 1", "unit": "mg/mL"}]}
{"compound": "Ethyl Alcohol", "values": [{"measurement": "LD50", "setting": "[2]; in vivo", "result": "46.4 to 100", "unit": "mg/mL"}]}
{"compound": "Gibberellin", "values": [{"measurement": "mortality", "setting": "[2]; in vivo", "result": "no significant mortality"}]}
